Target: T1, Nuclear factor erythroid 2-related factor 2 (Homo sapiens, UniProt Q16236)
T1 sequence (Q16236 whole entry): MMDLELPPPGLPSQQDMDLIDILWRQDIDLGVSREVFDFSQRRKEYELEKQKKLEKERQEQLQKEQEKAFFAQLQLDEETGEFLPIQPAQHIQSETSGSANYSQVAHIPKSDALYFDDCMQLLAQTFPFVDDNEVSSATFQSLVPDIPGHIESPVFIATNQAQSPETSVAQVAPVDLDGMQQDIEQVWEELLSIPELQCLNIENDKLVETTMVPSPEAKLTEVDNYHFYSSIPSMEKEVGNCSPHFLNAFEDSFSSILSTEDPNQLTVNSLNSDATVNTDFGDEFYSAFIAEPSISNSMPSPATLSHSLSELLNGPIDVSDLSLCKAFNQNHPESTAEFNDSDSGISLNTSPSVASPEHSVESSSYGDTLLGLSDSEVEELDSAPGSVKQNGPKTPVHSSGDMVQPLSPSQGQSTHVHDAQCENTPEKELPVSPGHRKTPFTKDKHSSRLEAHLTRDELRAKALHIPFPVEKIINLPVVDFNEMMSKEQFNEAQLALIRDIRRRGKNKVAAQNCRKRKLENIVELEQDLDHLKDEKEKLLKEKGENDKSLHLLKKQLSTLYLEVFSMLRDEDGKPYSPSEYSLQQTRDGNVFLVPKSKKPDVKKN
Assay: Activation of ED-tagged Nrf2 in human U2OS cells co-expressing Keap1 assessed as induction of NRF2 translocation to nucleus after 6 hrs by beta-galactosidase based chemiluminescent assay
Format: cell-based

Row | EC50 [nM] | SMILES
1 | 943 | COc1cccc(OS(=O)(=O)/C=C/c2cccc(Cl)c2)c1
2 | > 10000 | O=S(=O)(/C=C/c1ccccc1Cl)Nc1ccccc1

Source: ChEMBL document CHEMBL4304782, “Antioxidant, Anti-inflammatory, and Neuroprotective Effects of Novel Vinyl Sulfonate Compounds as Nrf2 Activator” (ACS Med Chem Lett, 2019)
